Reference: paper PMC7011086 (Frontiers in Pharmacology, 2020)

Assays:
[1] = system: washed platelets; assay: Flow cytometry: fibrinogen binding and P-selectin exposure; format: cell-based, human
Method: Whole blood was centrifuged at 250 × g for 10 min at 22°C to obtain PRP. To obtain washed platelets (WP), PRP was centrifuged twice (1,000 × g, 10 min, 20°C) in the presence of 1.25 μg/ml prostacyclin. The final platelet pellet was resuspended in modified Tyrode's-HEPES buffer, (20 mM N-2-hydroxyethylpiperazine-N'-2-ethanesulfonic acid, 5 mM glucose, 134 mM NaCl, 0.34 mM Na2HPO4, 2.9 mM KCl, 12 mM NaHCO3, and 1 mM MgCl2, pH 7.3) and rested for 30 min at 30°C before experiments. All protocols using human blood samples were approved by the Research Ethics Committees of the Federal University of […] and the University of Reading. WP (2-3 × 10^8 platelets/ml) were incubated with PESc at the same concentrations and conditions used for platelet aggregation experiments. Then WP were incubated for 10 min with thrombin (0.02 U/ml). FITC-conjugated PAC-1 antibody was added for 10 min in the dark and fluorescence read using a flow cytometer FACS Calibur (BD Biosciences, Franklin Lakes, USA). […] FITC-conjugated fibrinogen and PE/Cy5-conjugated anti-human CD62P were incubated for 30 min, then platelets were read after a 25-fold dilution with Tyrodes-HEPES buffer.

[2] = system: washed platelets; assay: Washed platelet aggregation (myricetin, gallic acid); format: cell-based, human; conditions: for inhibition of platelet aggregation (in words): 75-300 μM; for inhibition at 30 µM: Homo sapiens, Platelet
Method: Whole blood was centrifuged at 250 × g for 10 min at 22°C to obtain PRP. To obtain washed platelets (WP), PRP was centrifuged twice (1,000 × g, 10 min, 20°C) in the presence of 1.25 μg/ml prostacyclin. The final platelet pellet was resuspended in modified Tyrode's-HEPES buffer, (20 mM N-2-hydroxyethylpiperazine-N'-2-ethanesulfonic acid, 5 mM glucose, 134 mM NaCl, 0.34 mM Na2HPO4, 2.9 mM KCl, 12 mM NaHCO3, and 1 mM MgCl2, pH 7.3) and rested for 30 min at 30°C before experiments. All protocols using human blood samples were approved by the Research Ethics Committees of the Federal University of […] and the University of Reading. PRP and WP aggregation assays were performed in a four-channel aggregometer (Helena Biosciences, […], England). […] Aggregation traces from at least three different donors were recorded for 5 min.

[3] = target: T1, recombinant ERp5 (Homo sapiens, UniProt Q15084); assay: Reductase activity (Di-E-GssG), ERp5; format: biochemical; conditions: ERp5 2 µM, myricetin 0.01–10 µM, Di-E-GssG probe
T1 sequence (Q15084 20-440): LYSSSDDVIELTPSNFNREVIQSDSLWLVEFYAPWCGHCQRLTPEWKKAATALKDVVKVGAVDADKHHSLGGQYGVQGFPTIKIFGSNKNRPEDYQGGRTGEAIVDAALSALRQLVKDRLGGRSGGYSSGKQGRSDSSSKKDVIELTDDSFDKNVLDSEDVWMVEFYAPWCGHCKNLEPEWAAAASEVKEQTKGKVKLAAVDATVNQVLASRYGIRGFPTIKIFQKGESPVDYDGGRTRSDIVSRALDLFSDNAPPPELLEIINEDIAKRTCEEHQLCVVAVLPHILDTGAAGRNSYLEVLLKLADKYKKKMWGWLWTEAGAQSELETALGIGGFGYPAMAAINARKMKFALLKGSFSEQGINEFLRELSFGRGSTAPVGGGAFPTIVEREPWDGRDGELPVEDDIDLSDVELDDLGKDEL

[4] = target: T1, recombinant ERp5; assay: biochemical
[5] = target: T2, recombinant ERp72 (Homo sapiens, UniProt P13667); assay: Protein fluorescence quenching, ERp72; format: binding
T2 sequence (P13667 21-645): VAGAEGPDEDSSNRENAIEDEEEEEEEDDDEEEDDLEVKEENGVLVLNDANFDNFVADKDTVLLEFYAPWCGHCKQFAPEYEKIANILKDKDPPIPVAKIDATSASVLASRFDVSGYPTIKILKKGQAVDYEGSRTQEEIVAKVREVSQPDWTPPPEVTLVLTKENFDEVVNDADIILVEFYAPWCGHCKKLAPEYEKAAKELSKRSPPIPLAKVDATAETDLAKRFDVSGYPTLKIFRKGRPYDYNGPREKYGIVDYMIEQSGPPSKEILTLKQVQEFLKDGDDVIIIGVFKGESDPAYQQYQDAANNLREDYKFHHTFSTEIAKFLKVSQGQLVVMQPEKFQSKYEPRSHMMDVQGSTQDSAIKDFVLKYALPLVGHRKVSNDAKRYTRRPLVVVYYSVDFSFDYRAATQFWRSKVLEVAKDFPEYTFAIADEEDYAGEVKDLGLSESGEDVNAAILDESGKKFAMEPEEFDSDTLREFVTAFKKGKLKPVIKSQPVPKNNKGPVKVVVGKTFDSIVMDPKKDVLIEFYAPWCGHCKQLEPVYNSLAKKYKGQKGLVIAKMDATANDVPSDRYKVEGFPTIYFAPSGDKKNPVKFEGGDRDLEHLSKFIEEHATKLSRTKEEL

[6] = system: VASP (Ser239); assay: VASP (Ser239) phosphorylation immunoblotting; format: cell-based, human; conditions: resting washed platelets, 7.5, 15 and 30 μM, 10 min
Method: After protein separation, semi-dry transfer was performed at 15V for 2 h using a BioRad Trans-blot semidry blotter. Membranes were blocked with 5% bovine serum albumin (BSA) for 1 h and incubated with primary antibodies against VASP ([…]) or GAPDH at 1:1,000 v/v dilution overnight. After washing the primary antibody off, […] secondary antibody was incubated for 1 h at room temperature at 1:4,000 v/v dilution. Membranes were visualized using a Typhoon imaging system (GE Healthcare, Hatfield, UK).

[7] = system: whole blood on collagen-coated Vena8 bio-chips; assay: Thrombus formation under flow; format: cell-based, human; conditions: 30 µM, shear rate 45 dyn/cm^2, 10 min
Method: Fluorescence intensity was calculated using NIS Elements Software (Nikon, Tokyo, Japan).

[8] = target: T3, recombinant PDI (Homo sapiens, UniProt P07237); assay: Reductase activity (Di-E-GssG), PDI; format: biochemical; conditions: PDI 2 µM, myricetin 0.01–10 µM, Di-E-GssG probe
T3 sequence (P07237 18-508): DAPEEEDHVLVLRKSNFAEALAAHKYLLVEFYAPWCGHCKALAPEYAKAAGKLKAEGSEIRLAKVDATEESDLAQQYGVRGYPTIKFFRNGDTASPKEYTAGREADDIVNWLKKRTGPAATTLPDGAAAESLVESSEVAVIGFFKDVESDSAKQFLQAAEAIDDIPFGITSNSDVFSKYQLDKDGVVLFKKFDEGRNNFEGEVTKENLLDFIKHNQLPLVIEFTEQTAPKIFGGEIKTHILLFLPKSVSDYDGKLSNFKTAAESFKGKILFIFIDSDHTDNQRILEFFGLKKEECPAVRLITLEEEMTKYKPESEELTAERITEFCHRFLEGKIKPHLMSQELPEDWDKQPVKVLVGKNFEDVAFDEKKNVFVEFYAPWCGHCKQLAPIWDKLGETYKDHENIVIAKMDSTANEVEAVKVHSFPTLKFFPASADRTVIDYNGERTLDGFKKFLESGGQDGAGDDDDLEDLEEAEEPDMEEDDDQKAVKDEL

[9] = design: method as in Dang et al., 2014; conditions: rats, single oral dose of 100 mg/kg; ref Dang et al., 2014; cited from earlier work
[10] = target: T4, recombinant ERp57 (Homo sapiens, UniProt P30101); assay: biochemical
T4 sequence (P30101 25-505): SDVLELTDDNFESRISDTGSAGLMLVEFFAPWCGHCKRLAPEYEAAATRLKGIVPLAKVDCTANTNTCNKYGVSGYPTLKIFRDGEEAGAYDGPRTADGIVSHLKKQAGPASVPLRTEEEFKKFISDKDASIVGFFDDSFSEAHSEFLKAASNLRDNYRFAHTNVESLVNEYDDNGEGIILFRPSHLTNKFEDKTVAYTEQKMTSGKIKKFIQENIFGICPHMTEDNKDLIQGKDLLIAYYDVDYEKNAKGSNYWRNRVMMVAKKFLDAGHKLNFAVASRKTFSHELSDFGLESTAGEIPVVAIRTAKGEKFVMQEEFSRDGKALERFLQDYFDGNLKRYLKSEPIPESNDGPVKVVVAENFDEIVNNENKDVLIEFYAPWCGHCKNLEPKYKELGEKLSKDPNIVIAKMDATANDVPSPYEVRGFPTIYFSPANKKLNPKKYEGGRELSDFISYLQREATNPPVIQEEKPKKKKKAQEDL

[11] = target: T3, recombinant PDI; conditions: Kq=KSV/τ0, τ0 10^-8 s
[12] = target: T1, recombinant ERp5; conditions: ERp5 2 µM, myricetin 0.01–10 µM, Mean ± SEM
[13] = system: washed platelets; assay: Platelet spreading on collagen or fibrinogen; format: cell-based, human
Method: Non-adhered platelets were removed and the coverslip washed three times with PBS. Adhered platelets were fixed using 0.2% paraformaldehyde for 10 min. This solution was then removed and coverslips washed three times with PBS before the addition of 0.1% (v/v) Triton-X to permeabilize the cells. […] Coverslips were mounted onto microscope glass slides and imaged using a 100× oil immersion lens on a Nikon A1-R Confocal microscope.

[14] = target: T3, recombinant PDI; assay: biochemical
[15] = system: PDI; conditions: insulin turbidimetry, cited from earlier work; for inhibition of PDI (in words): ref Jasuja et al., 2012

With `O=C(O)c1cc(O)c(O)c(O)c1` [Gallic acid, gallic acid] the “fibrinogen binding (in words)” value ([1]; CRP-activated washed platelets, 150 μM) was “only able to reduce fibrinogen binding when incubated at 150 μM”, the “inhibition of platelet aggregation (in words)” value ([2]; TRAP-6-induced) was “unable to inhibit platelet aggregation, except at the higher concentration used (300 μM)” and the “inhibition of platelet aggregation (in words)” value ([2]; collagen-induced) was “unable to inhibit platelet aggregation”.

With `O=c1c(O)c(-c2cc(O)c(O)c(O)c2)oc2cc(O)cc(O)c12` [Myricetin] the “inhibition of reductase activity (in words)” value [3] was “inhibit both PDI and ERp5”, the Kd [4] was 1.74 µM and the “K SV (Stern-Volmer constant)” value ([5]; ERp72 2 µM, myricetin 0.01–10 µM, Mean ± SEM) was 27,515 ± 5,675 M^-1. For the same compound, the “Kq (quenching rate constant)” value ([5]; ERp72, Kq=KSV/τ0, τ0 10^-8 s) was 2.75e+12 M⁻¹ s⁻¹, the “K b (binding constant)” value ([5]; ERp72, determined for highest concentration tested) was 394000 M⁻¹ and the Kd ([5]; read-out: K d (dissociation constant)) was 2.53 µM. For the same compound, the “VASP phosphorylation (in words)” value [6] was “did not induce VASP phosphorylation”, the “thrombus formation (fluorescence intensity) (in words)” value [7] was “decreased thrombus formation” and the “inhibition of reductase activity (in words)” value [8] was “inhibit both PDI and ERp5, being more potent against PDI”. The peak plasma concentration [9] was 10 µM, the Kd [10] was 1.83 µM and the “Kq (quenching rate constant)” value [11] was 2.12e+12 M⁻¹ s⁻¹. The “K SV (Stern-Volmer constant)” value [12] was 48,750 ± 9,554 M^-1, the inhibition at 30 µM ([13]; Homo sapiens, Platelet, collagen-coated coverslips, 30 μM) was roughly 25% and the “platelet spreading (in words)” value ([13]; fibrinogen-coated coverslips, 7.5-30 μM) was “no effect”. The “fibrinogen binding (in words)” value ([1]; CRP-activated washed platelets, 15 μM) was “abolish”, the “fibrinogen binding (in words)” value ([1]; TRAP-6-activated washed platelets) was “still inhibited fibrinogen binding” and the Kd [14] was 4.26 µM. The inhibition at 30 µM ([2]; TRAP-6-induced) was roughly 60% and the inhibition at 30 µM ([2]; collagen-induced) was roughly 80%.

In the case of `O=c1c(O)c(-c2ccc(O)c(O)c2)oc2cc(O)cc(O)c12` [Quercetin, quercetin], the “inhibition of PDI (in words)” value [15] is given as “weak inhibitor of PDI”.

In the case of `O=c1c(O[C@@H]2O[C@H](CO)[C@@H](O)[C@H](O)[C@H]2O)c(-c2ccc(O)c(O)c2)oc2cc(O)cc(O)c12` [isoquercetin], the “inhibition of PDI reductase activity (in words)” value ([15]; ref Stopa et al., 2017) is given as “potent inhibitors of PDI reductase activity”.

For `C[C@@H]1O[C@@H](OC[C@H]2O[C@@H](Oc3c(-c4ccc(O)c(O)c4)oc4cc(O)cc(O)c4c3=O)[C@H](O)[C@@H](O)[C@@H]2O)[C@H](O)[C@H](O)[C@H]1O` [rutin], the “inhibition of PDI (in words)” value [15] is listed as “potent inhibitors of PDI reductase activity”.
